In test [1] the test system is C. xerosis. Kind of test: Bacterial colonies on agar petri dish treated with hydrogen peroxide alone and with UV light. It counts as cell-based. The conditions noted are these: + 265 nm UV light, 15 minutes. The procedure: (§1) The bacterial (organism) was plated on a standard agar petri dish and allowed to grow. The colonies were treated with hydrogen peroxide alone and with UV light for 15 minutes. The light growth means light growth is visable but not as fully developed colonies. Heavy growth was fully developed colonies to numerous to count.

For test [2], the system named is S. epidermidis. The test is described as above. The class given is cell-based. Particulars: + 265 nm UV light, 15 minutes. The procedure: as §1

With `OO` [Hydrogen peroxide], the “bacterial growth after treatment” value is “No” in test [1] and “Very” in test [2].
